From US7122643B2, “Cytostatic lanthanum compounds” (Faustus Forschungs Cie. Translational Cancer Research GmbH, priority 2001, dated 2006)

Key:
[1] = tested on: over 50 human tumour cell lines
[2] = tested on: 13 human tumour xenografts and 10 human tumour cell lines
[3] = mean over 13 human tumour xenografts and 10 human tumour cell lines

[tris(1,10-phenantrolin)lanthanum(III)]trithiocyanate
Cytostatic effectiveness (in words) ([1]; over 50 human tumour cell lines, 48-h): Good effectiveness
Activity relative to average of the panel ([1]; some melanoma and kidney cell carcinoma cell lines): Above average activities
Cytostatic activity (in words) ([2]; 13 human tumour xenografts and 10 human tumour cell lines): good cytostatic activity
Activity relative to average of the panel ([2]; mammary carcinoma cell lines MCF7, MDA468A, parvicellular bronchial carcinoma cell line DMS 114, one each of melanoma, ovarian, kidney cell and non-parvicellular bronchial carcinoma xenografts): Above average activities
Mean IC50 [2, 3]: 3.60 µg/mL
Mean IC90 [2, 3]: 12.1 µg/mL
Tumour type selectivity ([2]; prostate and colorectal carcinoma): selectivity for prostate and colorectal carcinoma
IC50 ([2]; read-out: Mean IC50, mean over 13 human tumour xenografts and 10 human tumour cell lines): 4.21 µM
IC90 ([2]; read-out: Mean IC90, mean over 13 human tumour xenografts and 10 human tumour cell lines): 14.2 µM
